Among the data in patent US9388199B2, “Pyrrolidine derivatives and their use as complement pathway modulators” (priority 2012, dated 2016) are IC50 values, retold here.

For orientation: IC50 means the point on the concentration scale where inhibition reaches its midpoint.

For the assay, the target named is Recombinant human factor D (Homo sapiens (Human), UniProt P00746). In words: Human Complement Factor D Assay: Method 1. The following applies: 10 nM factor D, substrate Z-Lys-thiobenzyl, fluorescence readout, read-out: IC50 (μM), Factor D inhibition. The format is biochemical. On the procedure:
Human Complement Factor D Assay: Method 1
Recombinant human factor D (expressed in E. coli and purified using standard methods) at 10 nM concentration is incubated with test compound at various concentrations for 1 hour at room temperature in 0.1 M Hepes buffer, pH 7.5, containing 1 mM MgCl2, 1 M NaCl and 0.05% CHAPS. A synthetic substrate Z-Lys-thiobenzyl and 2,4-dinitrobenzenesulfonyl-fluoresceine are added to final concentrations of 200 μM and 25 μM, respectively. The increase in fluorescence is recorded at excitation of 485 nm and emission at 535 nm in a microplate spectrofluorimeter. IC50 values are calculated from percentage of inhibition of complement factor D-activity as a function of test compound concentration.

Recombinant human factor D, sequence (P00746 26-253): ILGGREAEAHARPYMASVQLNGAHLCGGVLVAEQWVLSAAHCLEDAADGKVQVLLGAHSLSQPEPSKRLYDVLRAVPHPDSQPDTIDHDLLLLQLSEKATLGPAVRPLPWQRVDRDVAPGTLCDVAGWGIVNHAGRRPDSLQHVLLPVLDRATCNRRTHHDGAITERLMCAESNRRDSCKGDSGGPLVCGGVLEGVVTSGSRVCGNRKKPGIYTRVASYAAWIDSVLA

For the compound `CC(=O)c1nn(CC(=O)N2[C@@H]3C[C@@H]3C[C@H]2C(=O)NCCOC(F)(F)F)c2ccc(OCc3ncccn3)cc12` [Example 15, (1R,3S,5R)-2-{2-[3-Acetyl-5-(pyrimidin-2-ylmethoxy)-indazol-1-yl]-acetyl}-2-aza-bicyclo[3.1.0]hexane-3-carboxylic acid (2-trifluoro methoxy-ethyl)-amide], the IC50 was determined as 0.021 µM.
Under `CCNC(=O)[C@@H]1C[C@H]2C[C@H]2N1C(=O)Cn1nc(C(N)=O)c2cc(OCc3ncccn3)ccc21` [Example 18, 1-[2-((1R,3S,5R)-3-Ethylcarbamoyl-2-aza-bicyclo[3.1.0]hex-2-yl)-2-oxo-ethyl]-5-(pyrimidin-2-ylmethoxy)-1H-indazole-3-carboxylic acid amide] stands 2.89 µM; under `NC(=O)c1nn(CC(=O)N2[C@@H]3C[C@@H]3C[C@H]2C(=O)NCC(F)F)c2ccccc12` [Example 32, 1-{2-[(1R,3S,5R)-3-(2,2-Difluoro-ethylcarbamoyl)-2-aza-bicyclo[3.1.0]hex-2-yl]-2-oxo-ethyl}-1H-indazole-3-carboxylic acid amide], 0.874 µM; under `CC(=O)c1nn(CC(=O)N2[C@@H]3C[C@@H]3C[C@H]2C(=O)NCCCOC(F)(F)F)c2ccc(OCc3ncccn3)cc12` [Example 14, (1R,3S,5R)-2-{2-[3-Acetyl-5-(pyrimidin-2-ylmethoxy)-indazol-1-yl]-acetyl}-2-aza-bicyclo[3.1.0]hexane-3-carboxylic acid (3-trifluoro methoxy-propyl)-amide], 0.127 µM.
As for `CC(=O)c1nn(CC(=O)N2[C@@H]3C[C@@H]3C[C@H]2C(=O)NCC[Si](C)(C)C)c2cnccc12` [Example 43, (1R,3S,5R)-2-[2-(3-Acetyl-pyrazolo[3,4-c]pyridin-1-yl)-acetyl]-2-aza-bicyclo[3.1.0]hexane-3-carboxylic acid (2-trimethylsilanyl-ethyl)-amide], the IC50 came to 0.323 µM.
Under `C[Si](C)(C)CCNC(=O)[C@@H]1C[C@H]2C[C@H]2N1C(=O)Cn1nc(C(N)=O)c2ccccc21` [Example 28, 1-{2-oxo-2-[(1R,3S,5R)-3-(2-trimethylsilanyl-ethylcarbamoyl)-2-aza-bicyclo[3.1.0]hex-2-yl]-ethyl}-1H-indazole-3-carboxylic acid amide] stands 0.065 µM.
Turning to `CC(C)(C)C[C@H](CO)NC(=O)[C@@H]1C[C@H]2C[C@H]2N1C(=O)Cn1nc(C(N)=O)c2ccccc21` [Example 42, 1-{2-[(1R,3S,5R)-3-((R)-1-Hydroxymethyl-3,3-dimethyl-butylcarbamoyl)-2-aza-bicyclo[3.1.0]hex-2-yl]-2-oxo-ethyl}-1H-indazole-3-carboxylic acid amide], the IC50 came to 5.36 µM.
Regarding `CC(=O)c1nn(CC(=O)N2[C@@H]3C[C@@H]3C[C@H]2C(=O)NCCOC(F)(F)C(F)(F)F)c2ccc(OCc3ncccn3)cc12` [Example 16, (1R,3S,5R)-2-{2-[3-Acetyl-5-(pyrimidin-2-ylmethoxy)-indazol-1-yl]-acetyl}-2-aza-bicyclo[3.1.0]hexane-3-carboxylic acid (2-penta fluoroethyloxy-ethyl)-amide], the IC50 is 0.152 µM.
`CC(C)(C)C[C@@H](CO)NC(=O)[C@@H]1C[C@H]2C[C@H]2N1C(=O)Cn1nc(C(N)=O)c2ccccc21` [Example 35, 1-{2-[(1R,3S,5R)-3-((S)-1-Hydroxymethyl-3,3-dimethyl-butylcarbamoyl)-2-aza-bicyclo[3.1.0]hex-2-yl]-2-oxo-ethyl}-1H-indazole-3-carboxylic acid amide]: the IC50 worked out at 0.593 µM.
`CC(=O)c1nn(CC(=O)N2[C@@H]3C[C@@H]3C[C@H]2C(=O)NCCC(C)(C)C)c2ncccc12` [Example 29, (1R,3S,5R)-2-[2-(3-Acetyl-pyrazolo[3,4-b]pyridin-1-yl)-acetyl]-2-aza-bicyclo[3.1.0] hexane-3-carboxylic acid (3,3-dimethyl-butyl)-amide]: the IC50 amounted to 0.227 µM.
